Measurements taken from US10525055B2, “Opioid receptor antagonist prodrugs” (Nirsum Laboratories, Inc., priority 2017, dated 2020).

What was measured:
[1] = Liver S9 fraction stability, dog; assay type: in vitro ADME; settings: 1.0 mg/ml S9 protein, 2 μM, 37° C.
Protocol: (§1) Liver S9 fraction stability determination of the test compounds in dog, cynomolgus monkey and human is performed using HPLC-MS. Test compound (2 μM, 0.1% DMSO, 1% Methanol final concentration) was assessed for stability in a 50 μl phosphate buffer containing 1.0 mg/ml S9 protein from each of the three species and 5 mM D-saccharic acid-1, 4-lactone. Samples were incubated at 37° C. for 60 minutes and the % compound remaining was assessed.

[2] = molecular target: T1, KOR (Homo sapiens, UniProt P41145); test: Opioid receptor binding assay, KOR ([3H]Diprenorphine); settings: KOR, MaxDose 10000 nM
T1 construct: expressed in transfected cells; membranes prepared from them

[3] = Solubility determination in oil (cottonseed oil, sesame oil); settings: heating temp. 60 °C, obs. temp. 25 °C
Protocol: A known amount of test substance (˜40 mg) was weighed into the vial, 100 μL of oil was added and heated to 60° C. and then system was slurried to reach equilibrium. […] Extra oil was added into the vial once compound precipitated out and then the system was re-equilibrated at 1000 rpm at room temperature (25° C.). Final concentration was determined by HPLC method as described below in Table 6a and 6b.

[4] = Rat pharmacokinetic studies, intramuscular; assay type: in vivo, male Sprague Dawley Rats; settings: rat IM, Sesame oil + 1% Benzyl Alcohol
[5] = Plasma stability assay, dog plasma; assay type: in vitro ADME; settings: 37° C., 2 μM
Protocol: (§2) Plasma stability determination of the test compounds in rat, dog, cynomolgus monkey and human plasma is performed using HPLC-MS. For rat, incubations are carried out in 96-well polypropylene plates in 5 aliquots of 70 μL each (one for each time point). […] Five time points are analyzed (0, 15, 120, 480 and 1440 min). […] All incubations are performed in duplicates. The samples are analyzed by HPLC-MS. The percentage of parent compound remaining after incubation in plasma is determined.

[6] = Plasma stability assay, human plasma; assay type: in vitro ADME; settings: 37° C., 2 μM
Protocol: as §2

[7] = Plasma stability assay, rat plasma; assay type: in vitro ADME; settings: 37° C., 10 μM
[8] = Plasma stability assay, monkey plasma; assay type: in vitro ADME, cynomolgus monkey; settings: 37° C., 2 μM
Protocol: as §2

[9] = Dog pharmacokinetic studies, deep intramuscular; assay type: in vivo, Beagle dogs; settings: dog IM, Sesame oil + 1% Benzyl Alcohol
[10] = Liver S9 fraction stability, human; assay type: in vitro ADME; settings: 1.0 mg/ml S9 protein, 2 μM, 37° C.
Protocol: as §1

[11] = Liver S9 fraction stability, monkey; assay type: in vitro ADME, cynomolgus monkey; settings: 1.0 mg/ml S9 protein, 2 μM, 37° C.
Protocol: as §1

[12] = molecular target: T2, MOR (Homo sapiens, UniProt P35372); test: Opioid receptor binding assay, MOR ([3H]DAMGO); settings: MOR, MaxDose 10000 nM
T2 construct: expressed in transfected cells; membranes prepared from them
T2 sequence (P35372 whole entry): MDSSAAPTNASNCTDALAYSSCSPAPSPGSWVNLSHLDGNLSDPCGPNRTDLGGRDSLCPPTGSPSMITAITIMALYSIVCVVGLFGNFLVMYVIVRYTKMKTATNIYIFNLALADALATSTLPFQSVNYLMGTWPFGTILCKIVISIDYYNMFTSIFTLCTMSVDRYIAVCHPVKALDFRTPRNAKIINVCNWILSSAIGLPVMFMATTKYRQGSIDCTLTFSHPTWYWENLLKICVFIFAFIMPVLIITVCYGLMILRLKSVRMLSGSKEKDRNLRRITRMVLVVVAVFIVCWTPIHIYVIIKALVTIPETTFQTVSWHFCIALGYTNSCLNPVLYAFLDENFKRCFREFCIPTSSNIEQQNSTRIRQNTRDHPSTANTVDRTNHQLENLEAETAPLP

T1 sequence (P41145 whole entry): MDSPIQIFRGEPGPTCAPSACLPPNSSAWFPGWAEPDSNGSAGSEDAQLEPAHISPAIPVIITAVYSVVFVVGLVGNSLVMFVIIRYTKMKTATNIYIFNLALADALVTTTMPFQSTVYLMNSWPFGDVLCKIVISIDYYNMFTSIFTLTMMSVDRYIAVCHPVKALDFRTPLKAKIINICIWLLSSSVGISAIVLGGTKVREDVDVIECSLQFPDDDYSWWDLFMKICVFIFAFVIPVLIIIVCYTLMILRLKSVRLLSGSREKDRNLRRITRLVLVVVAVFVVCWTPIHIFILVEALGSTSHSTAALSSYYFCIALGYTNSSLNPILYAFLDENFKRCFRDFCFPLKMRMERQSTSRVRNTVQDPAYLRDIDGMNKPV

## C=C1CC[C@@]2(O)C3Cc4ccc(OC(=O)OCCCCCCCCCCCC)c5c4[C@@]2(CCN3CC2CC2)[C@H]1O5 [Compound 6, (4aS,7aS,12bS)-3-(cyclopropylmethyl)-4a-hydroxy-7-methylene-2,3,4,4a,5,6,7,7a-octahydro-1H-4,12-methanobenzofuro[3,2-e]isoquinolin-9-yl dodecyl carbonate]
[1]
  Liver S9 Fraction Stability % remaining at 60 minutes, Dog: 17.1%
[2]
  %Inh@MaxDose: 99.6%
[3]; Cottonseed oil
  Approximate Solubility (mg/mL) in Excipient: Cottonseed oil: >397 mg/mL
[3]; Sesame oil
  Approximate Solubility (mg/mL) in Excipient: Sesame oil: >386 mg/mL
[4]; 80 mg/kg
  AUC0-inf (ng · h/mL) prodrug: 78.9 ng·h/mL
  Half-life t1/2 (hour) prodrug: 340 h
[4]; 123 mg/kg
  AUC0-inf (ng · h/mL) prodrug: 620 ng·h/mL
  Half-life t1/2 (hour) prodrug: 213 h
[4]; 165 mg/kg
  AUC0-inf (ng · h/mL) prodrug: 637 ng·h/mL
  Half-life t1/2 (hour) prodrug: 204 h
[5]; 0 min
  % remaining at time point in minutes, 0 min: 100%
[5]; 15 min (as headed)
  % remaining at time point in minutes, 15 min: 89.1%
[5]; 120 min (as headed)
  % remaining at time point in minutes, 120 min: 96.9%
[5]; 480 min (as headed)
  % remaining at time point in minutes, 480 min: 107.2%
[5]; 1440 min (as headed)
  % remaining at time point in minutes, 1440 min: 101.2%
[6]; 0 min
  % remaining at time point in minutes, 0 min: 100%
[6]; 15 min (as headed)
  % remaining at time point in minutes, 15 min: 97.6%
[6]; 120 min (as headed)
  % remaining at time point in minutes, 120 min: 102%
[6]; 480 min (as headed)
  % remaining at time point in minutes, 480 min: 109.8%
[6]; 1440 min (as headed)
  % remaining at time point in minutes, 1440 min: 115.1%
[7]; 0 min
  % remaining at time point in minutes, 0 min: 100%
[7]; 15 min
  % remaining at time point in minutes, 15 min: 31.3%
[7]; 120 min
  % remaining at time point in minutes, 120 min: 7.6%
[7]; 480 min
  % remaining at time point in minutes, 480 min: 4%
[7]; 1440 min
  % remaining at time point in minutes, 1440 min: 1.6%
[8]; 0 min
  % remaining at time point in minutes, 0 min: 100%
[8]; 15 min (as headed)
  % remaining at time point in minutes, 15 min: 88.7%
[8]; 120 min (as headed)
  % remaining at time point in minutes, 120 min: 74.3%
[8]; 480 min (as headed)
  % remaining at time point in minutes, 480 min: 68.4%
[8]; 1440 min (as headed)
  % remaining at time point in minutes, 1440 min: 70.1%
[9]; 30 mg/kg
  AUC0-inf (ng · h/mL) prodrug: 398 ng·h/mL
  Half-life t1/2 (hour) prodrug: 95 h
[9]; 96 mg/kg
  AUC0-inf (ng · h/mL) prodrug: 1290 ng·h/mL
  Half-life t1/2 (hour) prodrug: 88 h
[10]
  Liver S9 Fraction Stability % remaining at 60 minutes, Human: 5.3%
[11]
  Liver S9 Fraction Stability % remaining at 60 minutes, Monkey: 0%
[12]
  %Inh@MaxDose: 102.5%
